From PMC9303812, “Asymmetrically Substituted m‐Terphenyl Phosphates Inhibit the Transcription Factor STAT5a” (Chembiochem, 2021)
Like-named read-outs stand apart in the source and are kept apart here.

Molecular target: T1, STAT5a (Homo sapiens, UniProt P42229)
T1 sequence (P42229 1-794): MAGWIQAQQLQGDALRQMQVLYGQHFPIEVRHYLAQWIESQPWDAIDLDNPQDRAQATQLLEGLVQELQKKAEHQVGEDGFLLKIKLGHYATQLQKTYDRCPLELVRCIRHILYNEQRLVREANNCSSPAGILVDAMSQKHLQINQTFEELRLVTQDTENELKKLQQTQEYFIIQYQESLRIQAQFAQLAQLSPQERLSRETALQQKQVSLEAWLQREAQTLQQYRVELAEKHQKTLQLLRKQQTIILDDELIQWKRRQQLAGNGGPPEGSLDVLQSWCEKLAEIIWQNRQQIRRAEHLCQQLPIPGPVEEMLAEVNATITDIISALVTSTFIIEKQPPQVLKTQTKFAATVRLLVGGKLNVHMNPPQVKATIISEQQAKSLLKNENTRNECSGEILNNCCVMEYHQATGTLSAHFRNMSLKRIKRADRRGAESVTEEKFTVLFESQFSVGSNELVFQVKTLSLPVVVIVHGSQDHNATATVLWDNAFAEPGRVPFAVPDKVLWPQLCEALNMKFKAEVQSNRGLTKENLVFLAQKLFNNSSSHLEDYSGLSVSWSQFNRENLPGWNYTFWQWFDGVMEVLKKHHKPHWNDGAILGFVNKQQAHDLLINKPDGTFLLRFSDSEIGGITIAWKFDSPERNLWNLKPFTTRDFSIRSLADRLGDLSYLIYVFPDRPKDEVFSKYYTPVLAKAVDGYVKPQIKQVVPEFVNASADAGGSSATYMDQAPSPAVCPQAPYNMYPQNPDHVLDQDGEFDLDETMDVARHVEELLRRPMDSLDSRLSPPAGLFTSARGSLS
Assay: Fluorescence polarization (FP) binding assay, STAT5a
Settings: for selectivity with respect to other STAT family members: FP assays against STAT1, STAT3, STAT4, STAT6
Protocol: Table S1: Activities of test compounds against STAT5a and STAT5b in FP assays . Experiments were carried out in triplicate (n = 3) unless stated otherwise. n/a: not applicable.
[a]data taken from the literature.[1]
Ki values were calculated from IC50 values using the published equation.[2] […]
Table S2: Activities of 12 against STAT5 proteins in FP assays.
Fluorescence polarization assays
Fluorescence polarization assays were essentially carried out as previously described.[1] These assays quantitate to which extent a test compound is able to interfere with binding between a STAT protein and a fluorescein-labeled phosphotyrosine-containing peptide, which is known to bind to the SH2 domain of the respective STAT protein. The following protein […]
concentrations were used: 100 nM for STAT1, 150 nM for STAT3, 30 nM for STAT4, 180 nM for STAT5a, 90 nM for STAT5b and 105 nM for STAT6. All peptides were used at a concentration of 10 nM. The following peptides were used: 5 -carboxyfluorescein -GpYDKPHVL for STAT1; 5-carboxyfluorescein -GpYLPQTV-NH2 for STAT3; 5-carboxyfluorescein-GpYLPQNID-OH for STAT4; 5-carboxyfluorescein-GpYLVLDKW for STAT5a/b, and 5-carboxyfluorescein-GpYVPWQDLI-OH for STAT6. As a buffer system, 10 mM Tris (pH 8.0), 50 mM NaCl, 1 mM EDTA, 1 mM DTT, 0.1 % Nonidet P-40 substitute, and 2 % DMSO in water was used. All compounds tested were incubated for 1 h with the protein. Subsequently, the fluorescein-labeled peptide was added and the fluorescence polarization was measured with an Infinite F500 plate reader (Tecan) after another hour. IC50 values were converted to Ki-values using the published equation.[2]

| SMILES | Ki (FP assay, Ki calculated from IC50 (n=3; 6 a n=2), read-out: STAT5a Ki) [µM] | IC50 (FP assay, n=3 (6a n=2), read-out: STAT5a IC50) [µM] | selectivity with respect to other STAT family members | IC50 [µM] | Ki [µM] |
| --- | --- | --- | --- | --- | --- |
| COc1cc(-c2cc(-c3cc(F)c(F)c(F)c3)cc(C(F)P(=O)(O)O)c2)cc(OC)c1OC (stereo not drawn) [compound 12] | 20 ± 2.1 | 40.4 ± 4.3 | retains selectivity | – | – |
| COc1cc(-c2cc(OP(=O)(O)O)cc(-c3cc(F)c(F)c(F)c3)c2)cc(OC)c1OC [6 b] | – | – | good selectivity | 22.1 ± 0.4 | 10.9 ± 0.2 |
